According to patent US20050209278A1, “Piperidinyl- and piperazinyl-sulfonylmethyl hydroxamic acids and their use as protease inhibitors” (priority 2002, published 2005):

biological target: T1, MMP-14 (Homo sapiens, UniProt P50281); test: In vitro MMP inhibition, Ki determination (fluorogenic substrate II); assay type: biochemical; settings: value not in parenthesis; read-out: MMP-14 Ki
T1 construct: The catalytic domain enzyme was expressed in E. coli inclusion bodies, solubilized in urea; made in house
Method in brief: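 Apparent Ki was fitted with Morrison's equation from reaction rates at a single low enzyme level. Enzyme was APMA- or trypsin-activated refolded MMP-14 catalytic domain, buffered at pH 7.5 with 10 mM CaCl2.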

Structure (SMILES) | Ki [µM]
COc1ccc(-c2ccc(N3CCN(S(=O)(=O)C4(C(=O)NO)CCOCC4)CC3)nc2)cc1 [Example 61] | 0.199
O=C(NO)C1(S(=O)(=O)N2CCN(c3ccc(OC(F)(F)C(F)F)cc3)CC2)CCSCC1 [Example 62] | 1.15
CCCCOc1ccc(N2CCN(S(=O)(=O)C3(C(=O)NO)CC3)CC2)cc1 [Example 63] | > 10
CCCCOc1ccc(N2CCN(S(=O)(=O)C3(C(=O)NO)CCN(c4ccc(OC(F)(F)C(F)F)cc4)CC3)CC2)cc1 [Example 65] | > 10
O=C(NO)C1(S(=O)(=O)N2CCN(c3ccc4c(c3)OC(F)(F)C(F)(F)O4)CC2)CCOCC1 [Example 67] | > 10
O=C(NO)C1(S(=O)(=O)N2CCN(c3ccc(COCC(F)(F)C(F)(F)F)cc3)CC2)CCOCC1 [Example 70] | > 10
CCCCOc1ccc(N2CCN(S(=O)(=O)C3(C(=O)NO)CCN(C(=O)c4ccco4)CC3)CC2)cc1 [Example 156] | 2.43
CCCCOc1ccc(N2CCN(S(=O)(=O)C3(C(=O)NO)CCN(c4nccs4)CC3)CC2)cc1 [Example 157] | 2.76
CCCCOc1ccc(N2CCN(S(=O)(=O)C3(C(=O)NO)CCN(c4ncccn4)CC3)CC2)cc1 [Example 159] | 2.06
CCCCOc1ccc(N2CCN(S(=O)(=O)C3(C(=O)NO)CCN(C(=O)c4cccs4)CC3)CC2)cc1 [Example 160] | 2.76
Cc1ccc(N2CCC(C(=O)NO)(S(=O)(=O)N3CCN(c4ccc(OCCCC(F)(F)F)cc4)CC3)CC2)cc1 [Example 161] | > 10
O=C(NO)C1(S(=O)(=O)N2CCN(c3ccc(OCCN4CCCC4)cc3)CC2)CCOCC1 [Example 162] | > 10
CCCCOc1ccc(N2CCN(S(=O)(=O)C3(C(=O)NO)CCN(CCOC)CC3)CC2)cn1 [Example 164] | 8.88
CCCCOc1c(F)cc(N2CCN(S(=O)(=O)C3(C(=O)NO)CCN(CCOC)CC3)CC2)cc1F [Example 165] | 3.65
COCCN1CCC(C(=O)NO)(S(=O)(=O)N2CCN(c3ccc(OCC(C)C)c(F)c3)CC2)CC1 [Example 166] | > 10
CCCCCc1ccc(N2CCN(S(=O)(=O)C3(C(=O)NO)CCOCC3)CC2)nc1 [Example 167] | 0.458
O=C(NO)C1(S(=O)(=O)N2CCN(c3ccccn3)CC2)CCOCC1 [Example 169] | 0.0849
O=C(NO)C1(S(=O)(=O)N2CCN(c3ccc(SC(F)(F)F)cc3)CC2)CCOCC1 [Example 170] | 0.453
CCCc1ccc(N2CCN(S(=O)(=O)C3(C(=O)NO)CCN(c4ccc(C)cc4)CC3)CC2)cc1 [Example 171] | 4.11
CCCCc1ccc(N2CCN(S(=O)(=O)C3(C(=O)NO)CCN(CCOC)CC3)CC2)cc1F [Example 173] | 1.86
COCCN1CCC(C(=O)NO)(S(=O)(=O)N2CCN(c3ccc(C(C)=O)cc3)CC2)CC1 [Example 174] | 2.91
CCCNC(=O)c1ccc(N2CCN(S(=O)(=O)C3(C(=O)NO)CCN(CCOC)CC3)CC2)cc1 [Example 175] | > 10
COCCN1CCC(C(=O)NO)(S(=O)(=O)N2CCN(c3ccccn3)CC2)CC1 [Example 176] | 0.181
CCCCC(=O)c1ccc(N2CCN(S(=O)(=O)C3(C(=O)NO)CCN(CCOC)CC3)CC2)cc1 [Example 177] | > 10
CCCc1cnc(N2CCN(S(=O)(=O)C3(C(=O)NO)CCN(CCOC)CC3)CC2)nc1 [Example 178] | 2.59
CCCCCc1ccc(N2CCN(S(=O)(=O)C3(C(=O)NO)CCN(S(N)(=O)=O)CC3)CC2)cc1 [Example 205] | 5.02
CCCCCc1ccc(N2CCN(S(=O)(=O)C3(C(=O)NO)CCN(C(=O)CC)CC3)CC2)cc1 [Example 206] | 0.11
Cc1ccc(-c2ccc(N3CCN(S(=O)(=O)C4(C(=O)NO)CCOCC4)CC3)cc2)cc1 [Example 207] | > 10

Structure (SMILES) | Ki [µM]
O=C(NO)C1(S(=O)(=O)N2CCN(c3ccc(-c4ccc(F)cc4)cc3)CC2)CCOCC1 [Example 208] | 0.621
O=C(NO)C1(S(=O)(=O)N2CCN(c3cnc(CCCC(F)(F)F)cn3)CC2)CCOCC1 [Example 209] | > 10
O=C(NO)C1(S(=O)(=O)N2CCN(c3cnc(CCC(F)(F)C(F)(F)F)cn3)CC2)CCOCC1 [Example 210] | 4.47
O=C(NO)C1(S(=O)(=O)N2CCN(c3ccc(OCC(F)(F)C(F)(F)F)cc3)CC2)CCOCC1 [Example 212] | 5.63
CC(C)Cc1ccc(N2CCN(S(=O)(=O)C3(C(=O)NO)CCOCC3)CC2)c(F)c1 [Example 213] | 4.28
CCCCc1nnc(N2CCN(S(=O)(=O)C3(C(=O)NO)CCOCC3)CC2)s1 [Example 214] | > 10
O=C(NO)C1(S(=O)(=O)N2CCN(c3nncs3)CC2)CCOCC1 [Example 215] | > 10
CCCc1nnc(N2CCN(S(=O)(=O)C3(C(=O)NO)CCOCC3)CC2)s1 [Example 216] | > 10
CCCCc1ccc(N2CCN(S(=O)(=O)C(C)C(=O)NO)CC2)nc1 (stereo not shown) [Example 217] | 1.51
O=C(NO)C1(S(=O)(=O)N2CCN(c3cnc(CCC(F)(F)F)cn3)CC2)CCOCC1 [Example 218] | 4.57
CCCCCc1cnc(N2CCN(S(=O)(=O)C3(C(=O)NO)CCOCC3)CC2)cn1 [Example 219] | 3.21
CCCCOc1ccc(N2CCN(S(=O)(=O)C3(C(=O)NO)CCN(c4ccc5c(c4)OCO5)CC3)CC2)cc1 [Example 221] | > 10
CCCCOc1ccc(N2CCN(S(=O)(=O)C3(C(=O)NO)CCS(=O)(=O)CC3)CC2)cc1 [Example 222] | > 10
CCCCOc1ccc(N2CCN(S(=O)(=O)C3(C(=O)NO)CCN(c4ccsc4)CC3)CC2)cc1 [Example 223] | 7.1
CCCCOc1ccc(N2CCN(S(=O)(=O)C3(C(=O)NO)CCN(c4ccc(C#N)cc4)CC3)CC2)cc1 [Example 225] | > 10
CCCCOc1ccc(N2CCN(S(=O)(=O)C3(C(=O)NO)CCN(c4cccc(C)c4)CC3)CC2)cc1 [Example 226] | > 10
COCCSc1ccc(N2CCN(S(=O)(=O)C3(C(=O)NO)CCOCC3)CC2)cc1 [Example 227] | 1.68
CCCCOc1ccc(N2CCN(S(=O)(=O)C3(C(=O)NO)CCN(c4ccc(OC)c(OC)c4)CC3)CC2)cc1 [Example 229] | 7.88
CCCCOc1ccc(N2CCN(S(=O)(=O)C3(C(=O)NO)CCN(C(=O)N4CCN(C)CC4)CC3)CC2)cc1 [Example 230] | 2.51
CCCCOc1ccc(N2CCN(S(=O)(=O)C3(C(=O)NO)CCN(C(=O)N4CCCC4)CC3)CC2)cc1 [Example 231] | 1.53
CCCCOc1ccc(N2CCN(S(=O)(=O)C3(C(=O)NO)CCSCC3)CC2)cc1 [Example 232] | 3.51
CCCCOc1ccc(N2CCN(S(=O)(=O)C3(C(=O)NO)CCN(CCN4CCOCC4)CC3)CC2)cc1 [Example 233] | 3.08
CCOCCSc1ccc(N2CCN(S(=O)(=O)C3(C(=O)NO)CCOCC3)CC2)cc1 [Example 234] | 2.88
CCCCOc1ccc(N2CCN(S(=O)(=O)C3(C(=O)NO)CCN(CCN(CC)CC)CC3)CC2)cc1 [Example 235] | 3.96
CCCCCc1ccc(N2CCN(S(=O)(=O)C3(C(=O)NO)CCN(S(=O)(=O)N(C)C)CC3)CC2)cc1 [Example 236] | > 10
CCCCCc1ccc(N2CCN(S(=O)(=O)C3(C(=O)NO)CCN(S(C)(=O)=O)CC3)CC2)cc1 [Example 237] | 7.12
CCCCOc1ccc(N2CCN(S(=O)(=O)C3(C(=O)NO)CCN(CCCC(F)(F)F)CC3)CC2)cc1 [Example 238] | 6.04
